Assay: xn = mol fraction of the nth substance listed
Details: Liquid; for speed of sound: Frequency=4 MHz, Single path-length method; for mass density: Vibrating tube method

c1ccc2c(c1)CCCC2 [1,2,3,4-tetrahydronaphthalene] + CCCCCCCCCCCCCCCC
Details | mass density, 100 kPa [kg/m3] | speed of sound, 100 kPa [m/s] | speed of sound, 5000 kPa [m/s] | speed of sound, 10000 kPa [m/s] | speed of sound, 15000 kPa [m/s] | speed of sound, 20000 kPa [m/s] | speed of sound, 25000 kPa [m/s]
313.15 K, x2 = 0 | 952.93 | 1413 | 1434 | 1455 | 1475 | 1495 | 1513
313.15 K, x2 = 0.2491 | 871.85 | 1346 | 1371 | 1395 | 1418 | 1441 | 1461
313.15 K, x2 = 0.4995 | 820.52 | 1315 | 1342 | 1367 | 1391 | 1414 | 1438
313.15 K, x2 = 0.75 | 785.3 | 1298 | 1326 | 1352 | 1378 | 1403 | 1427
323.15 K, x2 = 0 | 944.99 | 1374 | 1397 | 1419 | 1439 | 1459 | 1480
323.15 K, x2 = 0.2491 | 864.36 | 1311 | 1337 | 1361 | 1385 | 1408 | 1429
323.15 K, x2 = 0.4995 | 813.31 | 1278 | 1306 | 1333 | 1358 | 1383 | 1406
323.15 K, x2 = 0.75 | 778.26 | 1262 | 1291 | 1319 | 1345 | 1369 | 1393
333.15 K, x2 = 0 | 937.04 | 1335 | 1359 | 1383 | 1402 | 1425 | 1445
333.15 K, x2 = 0.2491 | 856.85 | 1274 | 1300 | 1326 | 1350 | 1374 | 1396
333.15 K, x2 = 0.4995 | 806.07 | 1242 | 1271 | 1298 | 1325 | 1350 | 1374
333.15 K, x2 = 0.75 | 771.21 | 1224 | 1253 | 1282 | 1309 | 1335 | 1361

c1ccc2c(c1)CCCC2 [1,2,3,4-tetrahydronaphthalene] + CCCCCCCCCC
Details | mass density, 100 kPa [kg/m3] | speed of sound, 100 kPa [m/s] | speed of sound, 5000 kPa [m/s] | speed of sound, 10000 kPa [m/s] | speed of sound, 15000 kPa [m/s] | speed of sound, 20000 kPa [m/s] | speed of sound, 25000 kPa [m/s]
313.15 K, x2 = 0 | 952.93 | 1413 | 1434 | 1455 | 1475 | 1495 | 1513
313.15 K, x2 = 0.2501 | 877.12 | 1331 | 1356 | 1380 | 1402 | 1424 | 1445
313.15 K, x2 = 0.5005 | 813.93 | 1265 | 1293 | 1319 | 1346 | 1370 | 1394
313.15 K, x2 = 0.7502 | 760.5 | 1214 | 1244 | 1273 | 1302 | 1329 | 1354
323.15 K, x2 = 0 | 944.99 | 1374 | 1397 | 1419 | 1439 | 1459 | 1480
323.15 K, x2 = 0.2501 | 869.27 | 1291 | 1317 | 1342 | 1365 | 1389 | 1411
323.15 K, x2 = 0.5005 | 806.15 | 1228 | 1255 | 1283 | 1310 | 1336 | 1361
323.15 K, x2 = 0.7502 | 752.77 | 1175 | 1207 | 1238 | 1268 | 1296 | 1321
333.15 K, x2 = 0 | 937.04 | 1335 | 1359 | 1383 | 1402 | 1425 | 1445
333.15 K, x2 = 0.2501 | 861.39 | 1254 | 1281 | 1306 | 1331 | 1356 | 1379
333.15 K, x2 = 0.5005 | 798.33 | 1189 | 1220 | 1249 | 1276 | 1302 | 1327
333.15 K, x2 = 0.7502 | 744.98 | 1137 | 1174 | 1204 | 1234 | 1263 | 1292

Source: the NIST ThermoML archive (doi:10.1016/j.jct.2014.09.020)
